Active and inactive are the calls of the source.
How the values were obtained:
[1] = IRAP inhibitors, dose response, selectivity assay for ERAP1 modulator project, biochemical, Leu-AMC fluorescence, cherry-picked samples, set 2 (AID 743340)
[2] = biological target: Endoplasmic reticulum aminopeptidase 2 (Homo sapiens, UniProt Q6P179); experiment: ERAP2 aminopeptidase inhibitors, dose response, selectivity assay for selective ERAP1 modulator project, biochemical, fluorescence plate reader, cherry-picked, set 2 (AID 743320)
[3] = intracellular Trypanosoma cruzi inhibitors in host cells – cell-based, plate reader, cherry-pick samples, set 3, dose response (AID 651818); type: functional;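 further: compounds incubated with infected cells for about four days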
[4] = growth suppression of PTEN-null colon cells, dose response, cell-based, HCT116 PTEN knockout (AID 1047); type: functional;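 further: HCT116 colon tumor cells with PTEN knocked out; cells exposed to compound for 60 hours before readout; potency for loss of cell viability measured by luminescence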
[5] = biological target: DNA (cytosine-5)-methyltransferase 1 (Homo sapiens, UniProt P26358); experiment: DNMT1 methyltransferase inhibitors, confirmation, biochemical, fluorescent molecular beacon (AID 602386); type: functional
[6] = biological target: T1, Calpain-2 catalytic subunit (Sus scrofa, UniProt P43367); experiment: pig calpain II inhibitor potency, dose response, biochemical, fluorogenic peptide substrate (AID 1420); type: functional
T1 sequence (P43367 whole entry): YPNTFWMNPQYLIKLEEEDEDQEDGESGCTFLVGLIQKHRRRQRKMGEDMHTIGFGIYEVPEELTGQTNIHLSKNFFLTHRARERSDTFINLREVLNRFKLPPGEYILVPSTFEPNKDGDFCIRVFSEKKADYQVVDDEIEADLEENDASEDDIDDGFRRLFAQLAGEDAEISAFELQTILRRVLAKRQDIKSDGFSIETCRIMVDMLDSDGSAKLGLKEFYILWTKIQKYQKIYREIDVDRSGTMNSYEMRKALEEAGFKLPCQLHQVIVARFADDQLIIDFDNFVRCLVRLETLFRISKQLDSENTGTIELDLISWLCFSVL

Hexokinase HKDC1 = biological target: T2, Hexokinase HKDC1 (Homo sapiens, UniProt Q2TB90); experiment: HKDC1 hexokinase inhibitors, dose response, biochemical, W721R variant (AID 504729); type: functional
T2 sequence (Q2TB90 whole entry): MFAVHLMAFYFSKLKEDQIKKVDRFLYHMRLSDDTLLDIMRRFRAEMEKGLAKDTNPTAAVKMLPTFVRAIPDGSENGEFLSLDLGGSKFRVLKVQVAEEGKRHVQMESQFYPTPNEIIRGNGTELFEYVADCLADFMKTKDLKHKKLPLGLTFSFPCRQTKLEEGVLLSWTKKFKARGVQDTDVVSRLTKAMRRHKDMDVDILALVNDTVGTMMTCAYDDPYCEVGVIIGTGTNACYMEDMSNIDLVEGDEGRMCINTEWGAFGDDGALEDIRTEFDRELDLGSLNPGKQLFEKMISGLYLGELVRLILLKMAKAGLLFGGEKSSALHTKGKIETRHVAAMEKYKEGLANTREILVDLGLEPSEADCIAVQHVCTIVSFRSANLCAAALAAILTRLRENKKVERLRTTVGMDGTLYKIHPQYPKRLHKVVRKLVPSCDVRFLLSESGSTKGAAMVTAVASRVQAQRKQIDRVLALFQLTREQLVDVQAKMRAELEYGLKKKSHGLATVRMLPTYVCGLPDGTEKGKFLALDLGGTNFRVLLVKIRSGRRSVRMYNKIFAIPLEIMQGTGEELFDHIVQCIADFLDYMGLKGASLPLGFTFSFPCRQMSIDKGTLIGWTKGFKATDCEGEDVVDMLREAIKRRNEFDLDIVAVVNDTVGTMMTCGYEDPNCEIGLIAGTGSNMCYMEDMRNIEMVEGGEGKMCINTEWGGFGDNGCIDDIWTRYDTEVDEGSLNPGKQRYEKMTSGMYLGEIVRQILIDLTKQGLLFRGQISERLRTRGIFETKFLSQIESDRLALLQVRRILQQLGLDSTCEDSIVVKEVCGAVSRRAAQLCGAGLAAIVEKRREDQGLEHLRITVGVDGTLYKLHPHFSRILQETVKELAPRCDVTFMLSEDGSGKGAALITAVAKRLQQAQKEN

HEK293 = experiment: inhibitors of LMP1-driven NF-kB reporter, dose response, cell-based, HEK293, luciferase, cherry-pick (AID 588343); type: functional; conditions: Homo sapiens
[7] = biological target: T3, Mannose-6-phosphate isomerase (Homo sapiens, UniProt P34949); experiment: human PMI inhibitors, high substrate, primary screen, biochemical, fluorescence intensity, high mannose 6-phosphate (AID 1220)
T3 sequence (P34949 whole entry): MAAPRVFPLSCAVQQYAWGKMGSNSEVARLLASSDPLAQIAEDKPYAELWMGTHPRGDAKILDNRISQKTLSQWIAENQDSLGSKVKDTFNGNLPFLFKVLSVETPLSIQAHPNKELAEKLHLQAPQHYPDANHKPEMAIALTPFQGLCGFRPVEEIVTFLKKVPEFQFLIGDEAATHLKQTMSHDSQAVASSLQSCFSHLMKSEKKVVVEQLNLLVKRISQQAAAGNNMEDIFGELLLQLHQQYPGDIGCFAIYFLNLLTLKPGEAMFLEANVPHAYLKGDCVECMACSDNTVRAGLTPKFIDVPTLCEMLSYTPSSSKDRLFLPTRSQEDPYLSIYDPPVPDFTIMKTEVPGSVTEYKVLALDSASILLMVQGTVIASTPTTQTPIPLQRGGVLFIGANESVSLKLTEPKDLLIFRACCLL

[8] = biological target: Hepatocyte nuclear factor 4-alpha (Homo sapiens, UniProt P41235); type: functional, cell-based;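 further: biochemical luminescence-based dose-response counterscreen measuring inhibition of HNF4 dimerization, run alongside a screen for blockers of ABHD5–perilipin-5 interaction; split luciferase complementation of HNF4 fusion proteins in cell lysate measuring dimerization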
[9] = growth suppression of beta-catenin-knockout colon cells, dose response, cell-based, HCT116, human colon tumor (AID 1045); type: functional;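 further: HCT116 colon tumor cells with beta catenin knocked out; cells exposed to compound for 60 hours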
[10] = Artemis endonuclease inhibitor potency, dose response, biochemical, fluorescence intensity (AID 720701); type: functional;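 further: Artemis endonuclease enzyme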
[11] = biological target: T4, Microphthalmia-associated transcription factor (Homo sapiens, UniProt O75030); experiment: TRPM1 promoter luciferase signal decrease, dose response, MITF inhibitor project, cell-based, SK-MEL-5, cherry-picked, set 3 (AID 493073); type: functional
T4 sequence (O75030 whole entry): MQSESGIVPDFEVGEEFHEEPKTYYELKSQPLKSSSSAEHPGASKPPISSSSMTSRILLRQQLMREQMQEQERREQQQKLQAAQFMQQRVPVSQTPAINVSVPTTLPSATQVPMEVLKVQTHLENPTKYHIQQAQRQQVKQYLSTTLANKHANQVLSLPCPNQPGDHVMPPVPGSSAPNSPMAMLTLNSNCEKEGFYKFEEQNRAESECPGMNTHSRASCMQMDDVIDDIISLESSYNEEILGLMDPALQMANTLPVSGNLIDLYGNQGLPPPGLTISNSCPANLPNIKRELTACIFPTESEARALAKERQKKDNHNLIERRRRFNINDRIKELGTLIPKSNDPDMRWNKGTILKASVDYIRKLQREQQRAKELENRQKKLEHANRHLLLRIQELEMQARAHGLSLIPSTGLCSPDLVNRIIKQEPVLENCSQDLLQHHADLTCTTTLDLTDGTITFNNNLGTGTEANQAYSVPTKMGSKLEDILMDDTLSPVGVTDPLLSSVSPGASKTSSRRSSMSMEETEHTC

[12] = biological target: E3 ubiquitin-protein ligase Mdm2 (Homo sapiens, UniProt Q00987); experiment: enhancers of MDM2-luciferase reporter signal, concentration-effect titration, project on inhibitors of MDM2 ubiquitin ligase, cellular assay, luminescent readout, 384-well plate format (AID 1394); type: functional;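 further: MDM2 E3 inhibitors raise luminescence so EC50 is for signal enhancement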
[13] = Luminescence Cell-Based Dose Retest to Confirm Inhibitors of Cancer Stem Cells. [Related pubchem assays (depositor defined):AID2717, AID2721]; type: functional; conditions: Homo sapiens
[14] = Fluorescence-based cell-based high throughput dose response assay for inhibitors of the interaction of nucleotide-binding oligomerization domain containing 2 (NOD2) and the receptor-interacting serine-threonine kinase 2 (RIPK2).; type: functional; conditions: Homo sapiens
[15] = inhibitors of PGC1a acetylation in cells, dose response, cell-based, cherry-picked samples (AID 720514); type: functional;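 further: potency may reflect raised or lowered acetylation signal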
[16] = Late-stage results from the probe development effort to identify antagonists of arginine vasopressin receptor 1a (AVPR1a): fluorescence-based cell-based dose response OXTR inhibition counterscreen assay.; type: functional
Vasopressin V2 receptor = Vasopressin V2 receptor (Homo sapiens, UniProt P30518); experiment: Late-stage results from the probe development effort to identify antagonists of arginine vasopressin receptor 1a (AVPR1a): fluorescence-based cell-based dose response AVPR2 inhibition counterscreen assay.; type: functional
[17] = Late-stage results from the probe development effort to identify antagonists of arginine vasopressin receptor 1a (AVPR1a): fluorescence-based cell-based dose response AVPR1a inhibition assay.; type: functional
Vasopressin V1b receptor = Vasopressin V1b receptor (Homo sapiens, UniProt P47901); experiment: Late-stage results from the probe development effort to identify antagonists of arginine vasopressin receptor 1a (AVPR1a): fluorescence-based cell-based dose response AVPR1b inhibition counterscreen assay.; type: functional
[18] = biological target: RNA-editing ligase 1, mitochondrial (Trypanosoma brucei brucei, UniProt P86926); experiment: TbREL1 ligase inhibitors, dose response, biochemical, fluorescence, Trypanosoma brucei (AID 1117295); type: functional
[19] = biological target: C-X-C chemokine receptor type 4 (Homo sapiens, UniProt P61073); experiment: SAR analysis of small molecule antagonists of the CXCR6 receptor using a CXCR4 receptor luminescent beta-arrestin counterscreen.; type: functional
[20] = biological target: T5, C-C chemokine receptor type 6 (Homo sapiens, UniProt P51684); experiment: SAR analysis of small molecule antagonists of the CXCR6 receptor using a CCR6 receptor luminescent beta-arrestin counterscreen.; type: functional
T5 sequence (P51684 whole entry): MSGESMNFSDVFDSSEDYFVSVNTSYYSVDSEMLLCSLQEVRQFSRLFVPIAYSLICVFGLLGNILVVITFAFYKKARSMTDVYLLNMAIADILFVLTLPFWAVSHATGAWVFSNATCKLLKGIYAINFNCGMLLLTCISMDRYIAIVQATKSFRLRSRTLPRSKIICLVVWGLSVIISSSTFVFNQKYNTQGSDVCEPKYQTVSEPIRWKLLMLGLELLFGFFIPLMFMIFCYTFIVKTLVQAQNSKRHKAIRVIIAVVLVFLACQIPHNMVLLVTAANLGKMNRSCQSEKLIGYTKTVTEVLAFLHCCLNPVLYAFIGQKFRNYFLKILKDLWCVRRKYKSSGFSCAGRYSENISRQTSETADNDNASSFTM

Chain of E3 ubiquitin-protein ligase Mdm2 (Q00987 whole entry): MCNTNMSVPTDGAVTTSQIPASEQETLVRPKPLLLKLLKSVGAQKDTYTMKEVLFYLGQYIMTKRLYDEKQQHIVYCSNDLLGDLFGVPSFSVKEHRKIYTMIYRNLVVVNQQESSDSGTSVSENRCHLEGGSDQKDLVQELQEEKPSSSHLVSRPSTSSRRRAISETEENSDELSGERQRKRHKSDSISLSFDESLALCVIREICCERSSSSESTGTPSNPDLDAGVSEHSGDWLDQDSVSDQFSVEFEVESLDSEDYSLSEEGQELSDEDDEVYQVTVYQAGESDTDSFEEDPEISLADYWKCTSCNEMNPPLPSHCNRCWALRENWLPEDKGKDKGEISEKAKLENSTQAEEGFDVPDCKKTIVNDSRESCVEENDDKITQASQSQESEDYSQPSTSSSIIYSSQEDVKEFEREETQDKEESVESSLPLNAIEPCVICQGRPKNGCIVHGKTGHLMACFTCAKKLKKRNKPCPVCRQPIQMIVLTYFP
Chain of DNA (cytosine-5)-methyltransferase 1 (P26358 whole entry): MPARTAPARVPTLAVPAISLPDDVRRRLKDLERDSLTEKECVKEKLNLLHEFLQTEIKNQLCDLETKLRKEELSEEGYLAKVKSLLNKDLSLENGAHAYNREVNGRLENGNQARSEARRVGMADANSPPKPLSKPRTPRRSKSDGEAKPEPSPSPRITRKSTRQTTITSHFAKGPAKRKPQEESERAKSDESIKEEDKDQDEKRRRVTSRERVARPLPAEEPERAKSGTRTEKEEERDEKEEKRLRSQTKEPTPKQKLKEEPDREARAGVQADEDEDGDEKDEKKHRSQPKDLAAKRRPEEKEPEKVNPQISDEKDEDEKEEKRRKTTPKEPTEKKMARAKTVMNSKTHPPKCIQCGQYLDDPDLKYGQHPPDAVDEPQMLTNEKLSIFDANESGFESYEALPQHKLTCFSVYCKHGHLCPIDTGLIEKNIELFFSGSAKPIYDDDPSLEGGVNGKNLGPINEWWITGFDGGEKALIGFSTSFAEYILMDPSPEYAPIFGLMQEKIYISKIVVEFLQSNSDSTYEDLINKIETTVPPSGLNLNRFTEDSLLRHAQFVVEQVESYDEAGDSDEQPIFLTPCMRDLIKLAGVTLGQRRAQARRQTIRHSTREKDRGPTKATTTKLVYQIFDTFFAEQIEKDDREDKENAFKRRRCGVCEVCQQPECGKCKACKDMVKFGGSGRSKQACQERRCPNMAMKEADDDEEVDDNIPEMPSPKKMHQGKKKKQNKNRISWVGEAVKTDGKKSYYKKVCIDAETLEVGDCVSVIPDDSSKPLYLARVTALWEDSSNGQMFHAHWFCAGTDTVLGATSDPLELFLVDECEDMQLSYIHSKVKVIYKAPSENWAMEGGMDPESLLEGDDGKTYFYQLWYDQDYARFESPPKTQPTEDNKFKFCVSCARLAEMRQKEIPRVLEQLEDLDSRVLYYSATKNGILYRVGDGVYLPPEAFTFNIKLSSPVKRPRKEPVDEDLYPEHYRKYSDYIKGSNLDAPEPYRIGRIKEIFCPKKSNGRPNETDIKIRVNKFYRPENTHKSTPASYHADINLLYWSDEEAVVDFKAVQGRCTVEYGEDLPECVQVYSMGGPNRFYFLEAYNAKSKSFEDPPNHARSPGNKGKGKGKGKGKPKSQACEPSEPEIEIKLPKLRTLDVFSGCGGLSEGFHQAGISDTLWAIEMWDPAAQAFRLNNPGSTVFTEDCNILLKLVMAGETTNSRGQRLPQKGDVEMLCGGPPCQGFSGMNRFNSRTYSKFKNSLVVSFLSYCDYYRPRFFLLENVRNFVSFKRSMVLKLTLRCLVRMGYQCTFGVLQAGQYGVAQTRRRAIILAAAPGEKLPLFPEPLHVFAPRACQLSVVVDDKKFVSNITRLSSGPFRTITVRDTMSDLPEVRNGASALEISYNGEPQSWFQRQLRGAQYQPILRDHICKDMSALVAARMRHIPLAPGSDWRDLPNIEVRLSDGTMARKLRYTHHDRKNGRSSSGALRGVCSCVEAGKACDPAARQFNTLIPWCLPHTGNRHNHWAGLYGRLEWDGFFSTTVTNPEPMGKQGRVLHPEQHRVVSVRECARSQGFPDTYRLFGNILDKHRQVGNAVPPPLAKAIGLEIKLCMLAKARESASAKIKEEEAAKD
Chain of Vasopressin V2 receptor (P30518 whole entry): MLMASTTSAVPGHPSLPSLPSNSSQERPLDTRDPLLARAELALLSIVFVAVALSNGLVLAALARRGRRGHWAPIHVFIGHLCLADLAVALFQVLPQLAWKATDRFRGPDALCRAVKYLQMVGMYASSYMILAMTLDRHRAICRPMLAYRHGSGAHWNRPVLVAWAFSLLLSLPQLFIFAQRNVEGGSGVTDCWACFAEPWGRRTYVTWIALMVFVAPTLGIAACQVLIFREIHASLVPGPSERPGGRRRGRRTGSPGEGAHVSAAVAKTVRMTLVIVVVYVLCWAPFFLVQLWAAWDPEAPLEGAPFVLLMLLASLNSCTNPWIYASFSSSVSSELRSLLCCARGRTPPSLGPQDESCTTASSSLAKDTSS
Chain of Endoplasmic reticulum aminopeptidase 2 (Q6P179 whole entry): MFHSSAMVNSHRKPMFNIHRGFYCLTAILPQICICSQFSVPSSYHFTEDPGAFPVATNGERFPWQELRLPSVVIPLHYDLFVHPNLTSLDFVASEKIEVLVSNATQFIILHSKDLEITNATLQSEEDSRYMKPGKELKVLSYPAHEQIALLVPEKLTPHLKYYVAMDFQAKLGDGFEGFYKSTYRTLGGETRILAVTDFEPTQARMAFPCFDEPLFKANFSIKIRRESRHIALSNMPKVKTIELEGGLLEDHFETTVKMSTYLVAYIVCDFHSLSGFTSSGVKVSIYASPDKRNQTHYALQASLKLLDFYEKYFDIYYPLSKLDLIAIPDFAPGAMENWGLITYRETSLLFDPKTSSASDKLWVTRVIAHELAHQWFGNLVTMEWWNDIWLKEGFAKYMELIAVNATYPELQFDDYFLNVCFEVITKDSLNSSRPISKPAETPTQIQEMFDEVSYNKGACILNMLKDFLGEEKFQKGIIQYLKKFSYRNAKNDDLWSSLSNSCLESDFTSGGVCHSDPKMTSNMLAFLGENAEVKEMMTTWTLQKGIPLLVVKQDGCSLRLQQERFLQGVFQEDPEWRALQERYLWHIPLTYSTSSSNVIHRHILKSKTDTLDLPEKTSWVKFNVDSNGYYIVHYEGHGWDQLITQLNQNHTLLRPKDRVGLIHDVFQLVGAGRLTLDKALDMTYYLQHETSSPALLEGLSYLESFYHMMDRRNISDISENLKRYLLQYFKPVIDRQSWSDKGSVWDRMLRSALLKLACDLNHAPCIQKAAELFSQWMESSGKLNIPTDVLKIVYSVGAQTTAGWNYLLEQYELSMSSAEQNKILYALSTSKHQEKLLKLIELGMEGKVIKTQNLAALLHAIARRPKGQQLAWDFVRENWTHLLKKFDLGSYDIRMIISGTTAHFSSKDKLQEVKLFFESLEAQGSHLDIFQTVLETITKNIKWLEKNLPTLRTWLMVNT
Chain of Vasopressin V1b receptor (P47901 whole entry): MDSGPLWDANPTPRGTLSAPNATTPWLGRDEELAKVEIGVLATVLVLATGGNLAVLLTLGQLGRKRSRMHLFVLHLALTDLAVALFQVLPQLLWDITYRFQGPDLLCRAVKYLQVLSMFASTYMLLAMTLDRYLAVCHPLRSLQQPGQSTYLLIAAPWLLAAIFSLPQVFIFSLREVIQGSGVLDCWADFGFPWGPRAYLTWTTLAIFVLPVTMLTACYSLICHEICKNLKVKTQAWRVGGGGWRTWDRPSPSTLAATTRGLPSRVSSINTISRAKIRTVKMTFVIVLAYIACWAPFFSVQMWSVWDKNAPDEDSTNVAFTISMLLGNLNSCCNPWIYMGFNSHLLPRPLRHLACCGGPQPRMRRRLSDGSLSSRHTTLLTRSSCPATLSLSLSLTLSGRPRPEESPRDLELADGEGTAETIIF
Chain of C-X-C chemokine receptor type 4 (P61073 whole entry): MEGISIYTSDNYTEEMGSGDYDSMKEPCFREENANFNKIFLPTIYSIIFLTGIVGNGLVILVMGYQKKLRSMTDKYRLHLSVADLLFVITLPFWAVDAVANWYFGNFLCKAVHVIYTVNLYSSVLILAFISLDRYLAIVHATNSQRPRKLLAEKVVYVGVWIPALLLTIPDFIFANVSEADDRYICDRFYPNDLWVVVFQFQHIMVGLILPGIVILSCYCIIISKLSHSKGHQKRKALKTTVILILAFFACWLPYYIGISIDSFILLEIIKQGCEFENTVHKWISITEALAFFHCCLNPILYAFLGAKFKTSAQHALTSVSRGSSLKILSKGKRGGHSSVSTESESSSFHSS
Chain of RNA-editing ligase 1, mitochondrial (P86926 whole entry): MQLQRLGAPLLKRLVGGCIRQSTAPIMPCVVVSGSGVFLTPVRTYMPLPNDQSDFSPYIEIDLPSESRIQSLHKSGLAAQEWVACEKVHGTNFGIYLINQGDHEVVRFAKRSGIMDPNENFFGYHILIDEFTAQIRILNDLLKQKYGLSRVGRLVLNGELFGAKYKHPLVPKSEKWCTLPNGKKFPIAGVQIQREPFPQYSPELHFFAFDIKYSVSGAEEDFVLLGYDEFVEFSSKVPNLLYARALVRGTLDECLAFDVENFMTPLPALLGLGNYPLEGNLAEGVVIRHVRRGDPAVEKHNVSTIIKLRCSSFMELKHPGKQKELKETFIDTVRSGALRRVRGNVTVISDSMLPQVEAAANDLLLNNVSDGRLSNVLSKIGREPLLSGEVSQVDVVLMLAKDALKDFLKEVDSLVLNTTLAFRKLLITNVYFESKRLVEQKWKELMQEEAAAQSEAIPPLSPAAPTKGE

Structure (SMILES): C[C@H](CO)N1C[C@H](C)[C@@H](CN(C)CC2CC2)Oc2c(NC(=O)Nc3ccc(C(F)(F)F)cc3)cccc2C1=O
- AC50 [1]: 16.9 µM (active)
- AC50 [2]: > 22 µM (inactive)
- AC50 [3]: 1.87 µM (active)

Structure (SMILES): Cc1oc2c(c1C(=O)c1ccc(Cl)cc1)C(=O)C(=O)c1ccccc1-2
- EC50 [4]: 2.63 µM (active)
- IC50 [5]: 6.05 µM (active)
- IC50 [6]: < 0.4 µM (not active)
- IC50 (Hexokinase HKDC1): 8.83 µM (active)
- AC50 (HEK293): 11.7 µM (active)
- IC50 [7]: > 50 µM (not active)
- IC50 [8]: 3.58 µM (active)
- EC50 [9]: 2.36 µM (active)
- IC50 [10]: 1.12 µM (active)

Structure (SMILES): O=C(Cn1ncc(Cl)c(Cl)c1=O)NCC1CCCCC1
- EC50 [4]: 2.58 µM (active)
- AC50 [11]: 7.39 µM (active)
- EC50 [12]: 1.89 µM (active)
- AC50 [13]: 2.83 µM (active)
- IC50 [14]: 3.98 µM (active)
- EC50 [9]: 1.44 µM (active)
- AC50 [15]: 3.97 µM (active)

Structure (SMILES): O=C(C1CCN(c2ccccn2)CC1)N(CC1CC1)c1ccc(Cl)cc1
- IC50 [16]: 9.6 µM (active)
- IC50 (Vasopressin V2 receptor): 28.3 µM (inactive)
- IC50 [17]: 0.0288 µM (active)
- IC50 (Vasopressin V1b receptor): 18.9 µM (inactive)

Structure (SMILES): COC(=O)C1=C(C)N(Cc2cccc(C(F)(F)F)c2)C(NCc2cc(OC)c(OC)c(OC)c2)=NC1c1ccccc1C(F)(F)F (stereo unspecified)
- IC50 [18]: > 96.6 µM (inactive)

Structure (SMILES): COc1cc(C(=O)NC2CC3CCCC(C2)N3CC(=O)Nc2ccc(C)cc2)cc(OC)c1OC (stereo unspecified)
- IC50 [19]: > 79 µM (inactive)
- IC50 [20]: > 79 µM (inactive)

— ChEMBL document CHEMBL1201862, “PubChem BioAssay data set” (2004)
